Where two headings read alike, the source gives them in different places.
Key:
[1] = molecular target: Bcl-2 (Homo sapiens, UniProt P10415); assay: Bcl-2 binding affinity analysis (fluorescence polarization binding assay)
In short: (§1)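 FP readout; quantitative in vitro binding format; same method applied to both anti-apoptotic proteins.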

[2] = molecular target: Bcl-xL (Homo sapiens, UniProt Q07817); assay: Bcl-xL binding affinity analysis (fluorescence polarization binding assay); design: scale not given here
In short: as §1

[3] = tested on: RL Human Follicular Lymphoma Cell Line; assay: Alamar blue cytotoxicity assay in RL cells; type: cell-based; details: Homo sapiens, 72 h incubation, read-out: Bcl RL Alamar Blue IC50
Experimental: (§2) When RL-cells are exposed to isoxazolidine compounds of the present invention, the inhibitors show a dose-dependent cell-killing in the Alamar blue cytoxicity assay with IC50 values of from about 100 μM to about 1 μM (See Examples). When Panc1 cells are exposed to the isoxazolidine compounds of the present invention in combination with camptothecin, the inhibitors show a synergistic dose-dependent cell killing in the propidium iodide exclusion cell survival assay with IC50 values of from about 100 μM to about 1 μM (See Examples).
• 1) Using 96 well plates, compounds were serially diluted in DMSO from 9 mM to 4 uM • 2) Assay plates were prepared by diluting samples 310 fold into 150 ul of medium containing 30,000 cells/well resulting in a final DMSO concentration of 0.3% and a concentration range from 29 uM to 0.013 uM for each compound. • 3) Plates were incubated at 37 C and 5% CO2 for 72 h • 4) After 72 h, Alamar blue reagent was added to each well and plates read according to manufacturer's instructions
In vitro cytotoxicity data for RL cells is presented below for various compounds of the invention.

[4] = tested on: Human Pancreatic Cancer Cell Line Panc1; assay: Cell death assay (propidium iodide/Hoechst) in Panc1 cells with or without camptothecin; type: cell-based; details: 72 hours, % cell death by propidium iodide/Hoechst
Experimental: as §2
• 1) Compounds were serially diluted in DMSO from a 9 mM stock to a final concentration of 0.004 mM in a 96 well plate. • 2) Assay plates were prepared by diluting compounds 310 fold into 150 ul of medium containing 10,000 cells/well, with or without 3 uM Camptothecin, resulting in a final DMSO concentration of 0.3% and a compound concentration range from 29 uM to […] for each compound. • 3) Assay plates were incubated at 37 C, 5% CO2 for 72 hours. • 4) After 72 hours, propidium iodide and Hoechst dye were added to each well according to manufacturer's instruction. • 5) Plates were imaged on a fluorescence microscope at wavelengths Ex560/Em650 (Propidium iodide) and Ex360/Em465 (Hoechst) • 6) MetaMorph imaging software was used to determine % cell death by dividing the number of propidium iodide stained cells (dead cells) by the number of Hoechst stained cells (all cells), multipled by 100, in each field.
Panc1 invitro cellular data is presented below for various compounds of the invention.

[5] = Homo sapiens, PANC-1, without camptothecin, read-out: Panc1 − Cpt IC50
[6] = with 3 uM Camptothecin, read-out: Panc1 + Cpt IC50

Bcl-2, sequence (P10415 whole entry): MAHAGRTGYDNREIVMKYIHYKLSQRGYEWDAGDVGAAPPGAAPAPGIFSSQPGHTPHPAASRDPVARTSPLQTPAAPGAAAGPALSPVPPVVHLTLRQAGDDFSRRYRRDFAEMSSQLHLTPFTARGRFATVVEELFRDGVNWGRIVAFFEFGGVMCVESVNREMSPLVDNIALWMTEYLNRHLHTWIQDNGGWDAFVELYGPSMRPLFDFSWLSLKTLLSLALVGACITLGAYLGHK
Bcl-xL, sequence (Q07817 whole entry): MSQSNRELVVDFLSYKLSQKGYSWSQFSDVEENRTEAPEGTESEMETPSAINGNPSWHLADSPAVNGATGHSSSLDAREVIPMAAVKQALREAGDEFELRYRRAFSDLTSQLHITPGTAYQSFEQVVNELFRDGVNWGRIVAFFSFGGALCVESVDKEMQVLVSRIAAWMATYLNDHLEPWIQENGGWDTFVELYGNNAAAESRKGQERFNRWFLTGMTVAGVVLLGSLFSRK

| SMILES | Ki [1] | Bcl-XL binding affinity Ki [2] | IC50 [3] | IC50 [4, 5] | IC50 [4, 6] |
| --- | --- | --- | --- | --- | --- |
| CC(O)C1C(CO)ON(Cc2cccc(CN(CCN(C)C)Cc3ccccc3I)c2)C1C(=O)NC1CC2CC(C1C)C2(C)C (centres unmarked) [Compound 394] | < 800 nM | ♯ | < 2000 nM | > 2500 nM | > 2500 nM |
| C[C@@H]1[C@@H](NC(=O)[C@@H]2[C@H]([C@H](C)O)[C@H](CO)ON2Cc2cccc(NC(=O)N[C@H](CC3CCCCC3)CN(C)C)c2)C[C@H]2C[C@@H]1C2(C)C [Compound 574] | < 800 nM | ♯ | 2000 to 5000 nM | – | – |
| COc1c(CN2O[C@@H](CO)[C@@H]([C@H](C)O)[C@H]2C(=O)N[C@H]2C[C@H]3C[C@@H]([C@@H]2C)C3(C)C)cccc1-c1cccc(C(=O)N[C@@H](CCc2ccccc2)CN(C)C)c1 [Compound 481] | < 800 nM | ♯ | 2000 to 5000 nM | – | – |
| CC(O)C1C(CO)ON(Cc2cccc(CN(CCN(C)C)Cc3cccc4ccccc34)c2)C1C(=O)NC1CC2CC(C1C)C2(C)C (centres unmarked) [Compound 368] | < 800 nM | ♯ | 2000 to 5000 nM | – | – |
| C[C@@H]1[C@@H](NC(=O)[C@@H]2[C@H]([C@H](C)O)[C@H](CO)ON2Cc2cccc(N(CCCN(C)C)CC3CCCCC3)c2)C[C@H]2C[C@@H]1C2(C)C [Compound 586] | < 800 nM | ♯ | 2000 to 5000 nM | – | – |
| CC(O)C1C(CO)ON(Cc2cccc(CN(CCN(C)C)Cc3cccc(O)c3)c2)C1C(=O)NC1CC2CC(C1C)C2(C)C (centres unmarked) [Compound 378] | < 800 nM | ♯ | 2000 to 5000 nM | – | – |
| CC(=O)Oc1cccc(CN(CCN(C)C)Cc2cccc(CN3OC(CO)C(C(C)O)C3C(=O)NC3CC4CC(C3C)C4(C)C)c2)c1 (centres unmarked) [Compound 405] | < 800 nM | ♯ | 2000 to 5000 nM | – | – |
| CC(O)C1C(CO)ON(Cc2cccc(CN(CCN(C)C)Cc3c(Cl)cccc3Cl)c2)C1C(=O)NC1CC2CC(C1C)C2(C)C (centres unmarked) [Compound 373] | < 800 nM | ♯ | 2000 to 5000 nM | – | – |
| CC(O)C1C(CO)ON(Cc2cccc(CN(CCN(C)C)Cc3ccc(-c4ccccc4)cc3)c2)C1C(=O)NC1CC2CC(C1C)C2(C)C (centres unmarked) [Compound 400] | < 800 nM | ♯ | < 2000 nM | – | – |
| Cc1ccc(CN(CCN(C)C)Cc2cccc(CN3OC(CO)C(C(C)O)C3C(=O)NC3CC4CC(C3C)C4(C)C)c2)cc1 (centres unmarked) [Compound 386] | < 800 nM | ♯ | 2000 to 5000 nM | – | – |
| COc1cc(CN(CCN(C)C)Cc2cccc(CN3OC(CO)C(C(C)O)C3C(=O)NC3CC4CC(C3C)C4(C)C)c2)cc(OC)c1 (centres unmarked) [Compound 404] | < 800 nM | ♯ | 2000 to 5000 nM | – | – |
| CC(O)C1C(CO)ON(Cc2cccc(CN3C(CN(C)C)CC4CCCCC43)c2)C1C(=O)NC1CC2CC(C1C)C2(C)C (centres unmarked) [Compound 466] | < 800 nM | ♯ | > 5000 nM | – | – |
| COc1cccc(OC)c1CN(Cc1cccc(CN2OC(CO)C(C(C)O)C2C(=O)NC2CC3CC(C2C)C3(C)C)c1)C(CC(C)C)CN(C)C (centres unmarked) [Compound 324] | < 800 nM | ♯ | < 2000 nM | – | – |
| CC(C)CC(CN(C)C)N(Cc1cccc(CN2OC(CO)C(C(C)O)C2C(=O)NC2CC3CC(C2C)C3(C)C)c1)Cc1ccc(F)cc1C(F)(F)F (centres unmarked) [Compound 323] | < 800 nM | ♯ | > 5000 nM | – | – |
| CC(O)C1C(CO)ON(Cc2cccc(NC(=O)NC(CCc3ccccc3)CN(C)C)c2)C1C(=O)NC1CC2CC(C1C)C2(C)C (centres unmarked) [Compound 572] | < 800 nM | ♯ | 2000 to 5000 nM | – | – |
| CC(O)C1C(CO)ON(Cc2cccc(CN(CCN(C)C)Cc3cccc(OC(F)(F)F)c3)c2)C1C(=O)NC1CC2CC(C1C)C2(C)C (centres unmarked) [Compound 367] | < 800 nM | ♯ | 2000 to 5000 nM | – | – |

Second part, led by results:

| Ki [1] | Bcl-XL binding affinity Ki [2] | SMILES | IC50 [3] | IC50 [4, 5] | IC50 [4, 6] |
| --- | --- | --- | --- | --- | --- |
| < 800 nM | ♯ | COc1c(CN2O[C@@H](CO)[C@@H]([C@H](C)O)[C@H]2C(=O)N[C@H]2C[C@H]3C[C@@H]([C@@H]2C)C3(C)C)cccc1-c1cccc(C(=O)N[C@H](CC(C)C)CN2CCCCCC2)c1 [Compound 483] | 2000 to 5000 nM | > 2500 nM | 1800 to 2500 nM |
| < 800 nM | ♯ | CC(O)C1C(CO)ON(Cc2cccc(CN(CCN(C)C)Cc3ccccn3)c2)C1C(=O)NC1CC2CC(C1C)C2(C)C (centres unmarked) [Compound 413] | > 5000 nM | > 2500 nM | > 2500 nM |
| < 800 nM | ♯ | CC(O)C1C(CO)ON(Cc2cccc(CN(CCN(C)C)Cc3ccccc3C(F)(F)F)c2)C1C(=O)NC1CC2CC(C1C)C2(C)C (centres unmarked) [Compound 357] | 2000 to 5000 nM | > 2500 nM | > 2500 nM |
| < 800 nM | ♯ | CC(C)CC(CN(C)C)N(Cc1cccc(CN2OC(CO)C(C(C)O)C2C(=O)NC2CC3CC(C2C)C3(C)C)c1)Cc1c(F)cccc1C(F)(F)F (centres unmarked) [Compound 339] | < 2000 nM | > 2500 nM | > 2500 nM |
| < 800 nM | ♯ | CC(O)C1C(CO)ON(Cc2cccc(CN(Cc3ccccc3)C(CN(C)C)c3ccccc3)c2)C1C(=O)NC1CC2CC(C1C)C2(C)C (centres unmarked) [Compound 418] | 2000 to 5000 nM | 1800 to 2500 nM | 1800 to 2500 nM |
| < 800 nM | ♯ | CC(C)CC(CN(C)C)N(Cc1cccc(CN2OC(CO)C(C(C)O)C2C(=O)NC2CC3CC(C2C)C3(C)C)c1)Cc1ccccc1Br (centres unmarked) [Compound 309] | < 2000 nM | > 2500 nM | 1300 to 1800 nM |
| < 800 nM | ♯ | CC(C)CC(CN(C)C)N(Cc1cccc(CN2OC(CO)C(C(C)O)C2C(=O)NC2CC3CC(C2C)C3(C)C)c1)Cc1ccccc1F (centres unmarked) [Compound 312] | < 2000 nM | > 2500 nM | > 2500 nM |
| < 800 nM | ♯ | CC(C)CC(CN(C)C)N(Cc1cccc(CN2OC(CO)C(C(C)O)C2C(=O)NC2CC3CC(C2C)C3(C)C)c1)Cc1ccccc1C#N (centres unmarked) [Compound 314] | < 2000 nM | > 2500 nM | > 2500 nM |
| < 800 nM | ♯ | CC(O)C1C(CO)ON(Cc2cccc(CNC(CC3CCCCCC3)CN(C)C)c2)C1C(=O)NC1CC2CC(C1C)C2(C)C (centres unmarked) [Compound 472] | 2000 to 5000 nM | > 2500 nM | > 2500 nM |
| < 800 nM | ♯ | CC(O)C1C(CO)ON(Cc2cccc(CN(CCN(C)C)Cc3ccccc3Br)c2)C1C(=O)NC1CC2CC(C1C)C2(C)C (centres unmarked) [Compound 348] | > 5000 nM | > 2500 nM | > 2500 nM |
| < 800 nM | ♯ | CC(C)C(CN(C)C)N(Cc1ccccc1)Cc1cccc(CN2OC(CO)C(C(C)O)C2C(=O)NC2CC3CC(C2C)C3(C)C)c1 (centres unmarked) [Compound 415] | 2000 to 5000 nM | > 2500 nM | > 2500 nM |
| < 800 nM | ♯ | CCN1CCC[C@H]1CN(Cc1ccccc1)Cc1cccc(CN2O[C@@H](CO)C([C@H](C)O)[C@H]2C(=O)N[C@H]2C[C@H]3C[C@@H]([C@@H]2C)C3(C)C)c1 (some centres unmarked) [Compound 424] | < 2000 nM | > 2500 nM | 1800 to 2500 nM |
